According to patent US6806286B2, “Pyrrolecarboxamides and pyrrolethioamides as fungicides” (Syngenta Crop Protection, Inc., priority 2000, dated 2004):

What was measured:
[1] = test system: Botryis cinerea; test: Action against Botryis cinerea/apple (Botrytis on apple fruits); type: in vivo, B. cinerea; conditions: apple fruit cv. Golden Delicious, 30 μl droplets 0.002% active ingredient in drilled holes, inoculated two hours after application, assessed after 7 days
Protocol: Action Against Botryis cinerea/apple (Botrytis on Apple Fruits)
In an apple fruit cv. […] Two hours after application 50 μl of a spore suspension of B. cinerea (4×10^5 conidia/ml) are pipetted on the application sites. After an incubation period of 7 days at 22° C. in a growth chamber the disease incidence is assessed.

[2] = test system: Venturia Inaequalis; test: Action against Venturia inaequalis/apple (scab on apple); type: in vivo; conditions: apple seedlings cv. McIntosh, spray 0.02% active ingredient, inoculated one day after application, assessed after 4+4+4 days incubation
Protocol: Action Against Venturia Inaequalis/apple (Scab on Apple)
4 week old apple seedlings cv. […] One day after application apple plants are inoculated by spraying a spore suspension (4×10^5 conidia/ml) on the test plants. After an incubation period of 4 days at 21° C. and 95% r. h. the plants are placed for 4 days at 21° C. and 60% r. h. in a greenhouse. After another 4 day incubation period at 21° C. and 95% r. h. the disease incidence is assessed.

[3] = test system: Podosphaera leucotricha; test: Action against Podosphaera leucotricha/apple (powdery mildew on apple); type: in vivo; conditions: apple seedlings cv. McIntosh, spray 0.002% active ingredient, inoculated one day after application, assessed after 12 days incubation
Protocol: Action Against Podosphaera leucotricha/apple (Powdery Mildew on Apple)
5 week old apple seedlings cv. […] One day after application apple plants are inoculated by shaking plants infected with apple powdery mildew above the test plants. After an incubation period of 12 days at 22° C. and 60% r. h. under a light regime of 14/10 h (light/dark) the disease incidence is assessed.

[4] = test system: Etysiphe graminis; test: Action against Etysiphe graminis/barley (powdery mildew on barley); type: in vivo; conditions: barley plants cv. Express, spray 0.02% active ingredient, inoculated one day after application, assessed after 6 days incubation
Protocol: Action Against Etysiphe graminis/barley (Powdery Mildew on Barley)
1 week old barley plants cv. […] One day after application barley plants are inoculated by shaking powdery mildew infected plants above the test plants. After an incubation period of 6 days at 20° C./18° C. (day/night) and 60% r. h. in a greenhouse the disease incidence is assessed.

[5] = test system: Septoria nodorum; test: Action against Septoria nodorum/wheat (Septoria leaf spot on wheat); type: in vivo; conditions: wheat plants cv. Arina, spray 0.02% active ingredient, inoculated one day after application, assessed 11 days after inoculation
Protocol: Action Against Septoria nodorum/wheat (Septoria Leaf Spot on Wheat)
1 week old wheat plants cv. […] One day after application wheat plants are inoculated by spraying a spore suspension (5×10^5 conidia/ml) on the test plants. After an incubation period of 1 day at 20° C. and 95% r. h. plants are kept for 10 days at 20° C. and 60% r.h. in a greenhouse. The disease incidence is assessed 11 days after inoculation.

[6] = test system: Boftis cinerea; test: Action against Boftis cinerea/grape (Botrytis on grapes); type: in vivo; conditions: grape seedlings cv. Gutedel, spray 0.002% active ingredient, inoculated two days after application, assessed after 4 days incubation
Protocol: Action Against Boftis cinerea/grape (Botrytis on Grapes)
5 week old grape seedlings cv. […] Two days after application grape plants are inoculated by spraying a spore suspension (1×10^6 conidia/ml) on the test plants. After an incubation period of 4 days at 21° C. and 95% r. h. in a greenhouse the disease incidence is assessed.

[7] = test system: Puenophora teres; test: Action against Puenophora teres/barley (net blotch on barley); type: in vivo; conditions: barley plants cv. Express, spray 0.002% active ingredient, inoculated two days after application, assessed 4 days after inoculation
Protocol: Action Against Puenophora teres/barley (Net Blotch on Barley)
1 week old barley plants cv. […] Two days after application barley plants are inoculated by spraying a spore suspension (3×10^4 conidia/ml) on the test plants. After an incubation period of 2 days at 20° C. and 95% r. h. plants are kept for 2 days at 20° C. and 60% r.h. in a greenhouse. The disease incidence is assessed 4 days after inoculation.

[8] = test system: Botryts cinerea; test: Action against Botryts cinerea/tomato (Botrytis on tomatoes); type: in vivo; conditions: tomato plants cv. Roter Gnom, spray 0.002% active ingredient, inoculated two days after application, assessed after 4 days incubation
Protocol: Action Against Botryts cinerea/tomato (Botrytis on Tomatoes)
4 week old tomato plants cv. […] Two days after application tomato plants are inoculated by spraying a spore suspension (1×10^5 conidia/ml) on the test plants. After an incubation period of 4 days at 20° C. and 95% r. h. in a growth chamber the disease incidence is assessed.

Measured: efficacy (disease incidence)

CC(C)c1cn(C)cc1C(=O)Nc1ccccc1-c1ccc(F)cc1 [Compound 1.269]
strong efficacy: all assays above

CCc1cn(C)cc1C(=O)Nc1ccccc1-c1ccc(Cl)cc1 [Compound 1.260]
strong efficacy: all assays above

Cn1cc(C(=O)Nc2ccccc2C2=CCCCC2)c(C(F)(F)C(F)(F)F)c1 [Compound 1.183]
strong efficacy: all assays above

Cc1cn(C)cc1C(=O)Nc1cnccc1-c1ccc(Cl)cc1 [Compound 6.10]
strong efficacy: all assays above

Cc1cn(C)cc1C(=O)Nc1cnccc1-c1ccc(F)cc1 [Compound 6.12]
strong efficacy: all assays above

CCc1cn(C)cc1C(=O)Nc1ccccc1-c1ccc(F)cc1 [Compound 1.261]
strong efficacy: all assays above

Cc1cn(C)cc1C(=O)Nc1ccccc1C1=CCCCC1 [Compound 1.5]
strong efficacy: all assays above

Cc1cn(C)cc1C(=O)Nc1ccsc1-c1ccc(Cl)cc1 [Compound 2.23]
strong efficacy: all assays above

CCn1cc(C(=O)Nc2ccccc2-c2ccc(F)cc2)c(C(C)C)c1 [Compound 1.272]
strong efficacy: all assays above

Cc1cn(C)cc1C(=O)Nc1ccccc1-c1ccncc1F [Compound 1.46]
strong efficacy: all assays above

Cn1cc(C(=O)Nc2ccccc2-c2ccc(Cl)cc2)c(C(F)F)c1 [Compound 1.144]
strong efficacy: all assays above

Cc1cn(C)cc1C(=O)Nc1ccccc1C1CCCCC1 [Compound 1.9]
strong efficacy: all assays above
